Source: PubChem BioAssay AID256 (DTP/NCI, 2004)
Toxic doses and inconclusive results are not listed. Rule for the calls: active = survival T/C of 150% or more; inactive = T/C below 125% in these data.

Test system: CD2F1 mice, L1210 leukemia ip, survival T/C
Experiment: NCI In Vivo Anticancer Drug Screen. Data for tumor model L1210 Leukemia (intraperitoneal) in CD2F1 (CDF1) mice
Conditions: endpoint: mean survival time, higher = longer survival
Summary of the method: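 Antitumor effect is scored in animals hosting a serially transplanted tumor. Values compare compound-dosed animals against vehicle-only controls as a simple quotient.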

[1] = dose: 100.0 mg/kg/injection, schedule: Q01DX009 (ip), vehicle: saline with Tween-80
[2] = dose: 200.0 mg/kg/injection, schedule: Q01DX009 (ip), vehicle: saline with Tween-80

Measured: T/C

S=C=NCc1cccc(CN=C=S)c1
inactive: dose: 1.5 mg/kg/injection, schedule: Q01DX009 (ip), vehicle: saline with Tween-80 98 % of control | dose: 3.0 mg/kg/injection, schedule: Q01DX009 (ip), vehicle: saline with Tween-80 101 % of control | dose: 6.25 mg/kg/injection, schedule: Q04DX003 (ip), vehicle: saline 101 % of control | dose: 12.5 mg/kg/injection, schedule: Q04DX003 (ip), vehicle: saline 103 % of control | dose: 25.0 mg/kg/injection, schedule: Q04DX003 (ip), vehicle: saline 101 % of control

Nc1ncnc2c1c1cnc(=O)[nH]c1n2C1OC(CO)C(O)C1O (stereo not drawn)
inactive: dose: 20.0 mg/kg/injection, schedule: Q01DX005 (ip), vehicle: alkali diluted with water 97 % of control | dose: 40.0 mg/kg/injection, schedule: Q01DX005 (ip), vehicle: alkali diluted with water 97 % of control | dose: 80.0 mg/kg/injection, schedule: Q01DX005 (ip), vehicle: alkali diluted with water 96 % of control | dose: 160.0 mg/kg/injection, schedule: Q01DX005 (ip), vehicle: alkali diluted with water 97 % of control | dose: 320.0 mg/kg/injection, schedule: Q01DX005 (ip), vehicle: alkali diluted with water 110 % of control

CC1C(O)=C(c2ccccc2)P(=O)(Cc2ccccc2)C1C (stereo not drawn)
inactive: dose: 50.0 mg/kg/injection, schedule: Q01DX009 (ip), vehicle: Klucel (hydroxypropylcellulose) (HPC) 104 % of control | dose: 100.0 mg/kg/injection, schedule: Q01DX009 (ip), vehicle: Klucel (hydroxypropylcellulose) (HPC) 93 % of control | dose: 200.0 mg/kg/injection, schedule: Q01DX009 (ip), vehicle: Klucel (hydroxypropylcellulose) (HPC) 93 % of control

CC(=O)Nc1ccc(S(=O)(=O)OCCC#N)cc1
inactive: [1] 98 % of control | [2] 91 % of control

COc1ccc(/C=N\NC(=O)CCCCCCCCC(=O)N/N=C\c2ccc(OC)c(O)c2)cc1O
inactive: dose: 50.0 mg/kg/injection, schedule: Q01DX009 (ip), vehicle: saline with Tween-80 97 % of control | [1] 97 % of control | [2] 105 % of control

O=C1N(Cc2ccccc2)CCS1(=O)=O
inactive: dose: 75.0 mg/kg/injection, schedule: Q01DX001 (ip), vehicle: other 96 % of control | dose: 150.0 mg/kg/injection, schedule: Q01DX001 (ip), vehicle: other 106 % of control

CC(C)(Cl)[N+](=O)[O-]
inactive: dose: 100.0 mg/kg/injection, schedule: Q04DX003 (ip), vehicle: saline 98 % of control | dose: 200.0 mg/kg/injection, schedule: Q04DX003 (ip), vehicle: saline 104 % of control | dose: 400.0 mg/kg/injection, schedule: Q04DX003 (ip), vehicle: saline 96 % of control
